Measurements from patent US10757944B2, “Ozone treatment for elimination of pathogens” (priority 2016, dated 2020).

Tested on: mold and yeast
Assay: Additional ozone exposure tests on cannabis flower or trim, mold and yeast CFU
Type: cell-based
Settings: ozone 200 ppm
Procedure: Some additional ozone exposure tests were performed with cannabis flower or trim on a variety of commercially available strains using an embodiment of a disclosed pathogen reduction device. In each experiment (disclosed in Table 6) a reduction of mold and yeast CFU/g was measured (as disclosed above using 3M® Petrifilm® Rapid Yeast and Mold Count Plate and Product Instruction) after treating different weights of cannabis with an ozone concentration of 200 ppm for between 20 and 60 minutes.

Which “Ending CFU” value (Flower, Hybrid, 5 lbs, 60:00 min, Initial CFU 77,000) does the source give for `O=[O+][O-]` [ozone] here?
The value was 4500 CFU.

And the “Ending CFU” value (Flower, Hybrid/Indica, 1 lb, 45:00 min, Initial CFU 2,200)?
The value was 220 CFU.

And the “Ending CFU” value (Flower, Hybrid/Indica, 6 lbs, 25:00 min, Initial CFU 51,750)?
The value was 30,000-32,000 CFU.

And the “Ending CFU” value (Flower, Hybrid/Indica, weight NA, 60:00 min, Initial CFU 110,000)?
Its value is 3,000 CFU.

What about the “Ending CFU” value (Flower, Hybrid/Sativa, 1 lb, 20:00 min, Initial CFU 100,000) of the same compound?
The value was 5,400-5,500 CFU.

What about the “Ending CFU” value (Flower, Indica, 3 lbs, 60:00 min, Initial CFU 320,000) of the same compound?
Its value is 91,000 CFU.

And the “Ending CFU” value (Trim, Hybrid/Indica, 6 lbs, 25:00 min, Initial CFU 17,000)?
Its value is 800-11,000 CFU.

And the “Ending CFU” value (Trim, Hybrid/Sativa, 3 lbs, 60:00 min, Initial CFU 50,000)?
Its value is 3,000 CFU.
